Measured values from the supplement of paper PMC11451515.

How the values were obtained:
Settings in all cases: 48 h
NOMO1 [1] = experiment: cell viability relative to DMSO control; higher = less cytotoxic
How it was run: (§1)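 Library compounds in DMSO were pin-dosed in an 11-point threefold series (47 μM to 0.79 nM) onto leukemia cells in 1536-well plates (5 μl). Plates held 500 cells/well of NOMO1 or SEM or 1000 cells/well of P12-Ichikawa, each adapted for at least four passages in each medium. Luminescence was read with CellTiter-Glo One after 48 h at 37°C. Viability means the per-plate percentage relative to DMSO wells, using cell-free wells as background.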

P12-Ichikawa [2] = experiment: as above
How it was run: as §1

SEM cells [3] = experiment: as above
How it was run: as §1

NOMO1 [4] = experiment: AUC of viability dose-response curve (% viability x log10 dose units); higher = less sensitive
How it was run: (§2)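 Leukemia cells adapted to each medium were seeded at 500 or 1000 cells/well in 1536-well plates and dosed with library compounds in DMSO at 11 threefold doses from 47 μM to 0.79 nM for 48 h at 37°C. CellTiter-Glo One luminescence was normalised per plate to DMSO and cell-free wells, then fitted with a four-parameter log-logistic model over log10 doses. Area under the curve was taken from this fit by the trapezoidal rule, with curves above full viability scaled and curves failing quality control removed.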

P12-Ichikawa [5] = experiment: as above
How it was run: as §2

SEM cells [6] = experiment: as above
How it was run: as §2

CO[C@H]1/C=C/O[C@@]2(C)Oc3c(C)c(O)c4c(O)c(c(/C=N\N5CCN(C6CCCC6)CC5)c(O)c4c3C2=O)NC(=O)/C(C)=C\C=C\[C@H](C)[C@H](O)[C@@H](C)[C@@H](O)[C@@H](C)[C@H](OC(C)=O)[C@@H]1C
cell viability [%]
Settings	NOMO1 [1]	P12-Ichikawa [2]	SEM cells [3]
HPLM + 10% dialyzed FBS, 0.000781 µM	119	112	78.4
HPLM + 10% dialyzed FBS, 0.00234 µM	123	122	70.3
HPLM + 10% dialyzed FBS, 0.00702 µM	104	117	63.7
HPLM + 10% dialyzed FBS, 0.0211 µM	116	109	62.1
HPLM + 10% dialyzed FBS, 0.0632 µM	90.5	104	45.6
HPLM + 10% dialyzed FBS, 0.19 µM	93.4	98.2	15
HPLM + 10% dialyzed FBS, 0.569 µM	79.3	98.2	6.95
HPLM + 10% dialyzed FBS, 1.71 µM	52.3	71.5	3.02
HPLM + 10% dialyzed FBS, 5.12 µM	28.9	19.8	1.55
HPLM + 10% dialyzed FBS, 15.4 µM	6.78	1.51	1.63
HPLM + 10% dialyzed FBS, 46.1 µM	0.815	-0.607	1.24
RPMI 5 mM glucose + 10% FBS, 0.000781 µM	123	–	39.3
RPMI 5 mM glucose + 10% FBS, 0.00234 µM	110	87.9	42.6
RPMI 5 mM glucose + 10% FBS, 0.00702 µM	111	93.7	34.7
RPMI 5 mM glucose + 10% FBS, 0.0211 µM	107	78.7	33.5
RPMI 5 mM glucose + 10% FBS, 0.0632 µM	109	70.7	29.1
RPMI 5 mM glucose + 10% FBS, 0.19 µM	76.5	70.7	9.34
RPMI 5 mM glucose + 10% FBS, 0.569 µM	75.1	68	4.87
RPMI 5 mM glucose + 10% FBS, 1.71 µM	51.8	51.8	2.56
RPMI 5 mM glucose + 10% FBS, 5.12 µM	17.9	5.83	1.35
RPMI 5 mM glucose + 10% FBS, 15.4 µM	3.98	0.395	1.05
RPMI 5 mM glucose + 10% FBS, 46.1 µM	0.906	-0.516	0.91
RPMI 5 mM glucose + 10% dialyzed FBS, 0.000781 µM	100	101	58
RPMI 5 mM glucose + 10% dialyzed FBS, 0.00234 µM	98.4	111	63.5
RPMI 5 mM glucose + 10% dialyzed FBS, 0.00702 µM	95.2	–	60.5
RPMI 5 mM glucose + 10% dialyzed FBS, 0.0211 µM	80.2	87.7	47.5
RPMI 5 mM glucose + 10% dialyzed FBS, 0.0632 µM	83.4	84.1	50.4
RPMI 5 mM glucose + 10% dialyzed FBS, 0.19 µM	79.3	74.6	19.8
RPMI 5 mM glucose + 10% dialyzed FBS, 0.569 µM	64.7	85.2	8.21
RPMI 5 mM glucose + 10% dialyzed FBS, 1.71 µM	52.9	61.8	2.82
RPMI 5 mM glucose + 10% dialyzed FBS, 5.12 µM	24.1	13.6	1.68
RPMI 5 mM glucose + 10% dialyzed FBS, 15.4 µM	3.08	5.16	1.26
RPMI 5 mM glucose + 10% dialyzed FBS, 46.1 µM	0.433	0.889	1.06

NOMO1 [4]
Settings	AUC of viability dose-response curve
HPLM + 10% dialyzed FBS	308
RPMI 5 mM glucose + 10% FBS	300
RPMI 5 mM glucose + 10% dialyzed FBS	304

O=[S+]([O-])(F)Cc1ccccc1
SEM cells [3], HPLM + 10% dialyzed FBS
Settings	cell viability [%]
0.000781 µM	120
0.00234 µM	122
0.00702 µM	134
0.0211 µM	122
0.0632 µM	125
0.19 µM	50.5
0.569 µM	109
1.71 µM	133
5.12 µM	114
15.4 µM	115
46.1 µM	112

AUC of viability dose-response curve
Settings	NOMO1 [4]	P12-Ichikawa [5]	SEM cells [6]
HPLM + 10% dialyzed FBS	434	446	455
RPMI 5 mM glucose + 10% FBS	468	448	440
RPMI 5 mM glucose + 10% dialyzed FBS	476	442	446

CCCCCCCCCCCCCCCC(=O)O[C@@H]1[C@@H](O)[C@@H](O)[C@@H]([C@H](NC(=O)[C@@H]2C[C@@H](CCC)CN2C)[C@H](C)Cl)O[C@@H]1SC.Cl
AUC of viability dose-response curve
Settings	NOMO1 [4]	P12-Ichikawa [5]	SEM cells [6]
HPLM + 10% dialyzed FBS	426	452	470
RPMI 5 mM glucose + 10% FBS	423	456	469
RPMI 5 mM glucose + 10% dialyzed FBS	425	442	465

CNC1CCCN(c2c(F)cc3c(=O)c(C(=O)O)cn(C4CC4)c3c2OC)C1 (centres undefined)
SEM cells [3], HPLM + 10% dialyzed FBS
Settings	cell viability [%]
0.000781 µM	120
0.00234 µM	123
0.00702 µM	131
0.0211 µM	139
0.0632 µM	134
0.19 µM	125
0.569 µM	133
1.71 µM	122
5.12 µM	115
15.4 µM	117
46.1 µM	113

AUC of viability dose-response curve
Settings	HPLM + 10% dialyzed FBS	RPMI 5 mM glucose + 10% FBS	RPMI 5 mM glucose + 10% dialyzed FBS
P12-Ichikawa [5]	432	441	443
SEM cells [6]	462	445	456

CNNCc1ccc(C(=O)NC(C)C)cc1
cell viability [%], HPLM + 10% dialyzed FBS
Settings	P12-Ichikawa [2]	SEM cells [3]
0.000781 µM	118	102
0.00234 µM	123	118
0.00702 µM	125	130
0.0211 µM	136	117
0.0632 µM	124	139
0.19 µM	137	133
0.569 µM	135	107
1.71 µM	144	132
5.12 µM	133	83.7
15.4 µM	119	92.1
46.1 µM	99.7	40.7

AUC of viability dose-response curve
Settings	NOMO1 [4]	P12-Ichikawa [5]	SEM cells [6]
HPLM + 10% dialyzed FBS	465	467	434
RPMI 5 mM glucose + 10% FBS	468	464	452
RPMI 5 mM glucose + 10% dialyzed FBS	468	466	448

CC1=CC=C2\N=C/3N(CC[C@@]3(O)C(=O)C2=C1)C4=CC=CC=C4
cell viability [%]
Settings	NOMO1 [1]	P12-Ichikawa [2]	SEM cells [3]
HPLM + 10% dialyzed FBS, 0.000781 µM	102	97.2	89.5
HPLM + 10% dialyzed FBS, 0.00234 µM	103	98.3	88.6
HPLM + 10% dialyzed FBS, 0.00702 µM	96.2	94.9	97.7
HPLM + 10% dialyzed FBS, 0.0211 µM	104	94.6	87.3
HPLM + 10% dialyzed FBS, 0.0632 µM	104	99.3	94.5
HPLM + 10% dialyzed FBS, 0.19 µM	95.4	88.8	93
HPLM + 10% dialyzed FBS, 0.569 µM	105	92.1	96.6
HPLM + 10% dialyzed FBS, 1.71 µM	88.3	95.3	95
HPLM + 10% dialyzed FBS, 5.12 µM	74	82	70.5
HPLM + 10% dialyzed FBS, 15.4 µM	88.9	86.6	85.8
HPLM + 10% dialyzed FBS, 46.1 µM	91.3	89.5	93
RPMI 5 mM glucose + 10% FBS, 0.000781 µM	82	84.8	119
RPMI 5 mM glucose + 10% FBS, 0.00234 µM	88.2	82.3	120
RPMI 5 mM glucose + 10% FBS, 0.00702 µM	93.6	92	98.3
RPMI 5 mM glucose + 10% FBS, 0.0211 µM	85.4	90.2	120
RPMI 5 mM glucose + 10% FBS, 0.0632 µM	79.3	92.4	108
RPMI 5 mM glucose + 10% FBS, 0.19 µM	79.5	89.2	121
RPMI 5 mM glucose + 10% FBS, 0.569 µM	84	89	97
RPMI 5 mM glucose + 10% FBS, 1.71 µM	84.4	90.2	94.9
RPMI 5 mM glucose + 10% FBS, 5.12 µM	75.8	83.8	92.4
RPMI 5 mM glucose + 10% FBS, 15.4 µM	92.2	86.7	117
RPMI 5 mM glucose + 10% FBS, 46.1 µM	85.9	86.9	107
RPMI 5 mM glucose + 10% dialyzed FBS, 0.000781 µM	94.5	95.4	86.8
RPMI 5 mM glucose + 10% dialyzed FBS, 0.00234 µM	95.1	86	83.2
RPMI 5 mM glucose + 10% dialyzed FBS, 0.00702 µM	87.5	84.1	85.6
RPMI 5 mM glucose + 10% dialyzed FBS, 0.0211 µM	86.7	83.1	95.7
RPMI 5 mM glucose + 10% dialyzed FBS, 0.0632 µM	101	84.5	92.6
RPMI 5 mM glucose + 10% dialyzed FBS, 0.19 µM	92	81.1	76.6
RPMI 5 mM glucose + 10% dialyzed FBS, 0.569 µM	86.7	90	101
RPMI 5 mM glucose + 10% dialyzed FBS, 1.71 µM	88.9	82.1	78.3
RPMI 5 mM glucose + 10% dialyzed FBS, 5.12 µM	79.2	81.9	70.8
RPMI 5 mM glucose + 10% dialyzed FBS, 15.4 µM	84.9	76.4	87.2
RPMI 5 mM glucose + 10% dialyzed FBS, 46.1 µM	82.9	78.7	94.5

AUC of viability dose-response curve
Settings	NOMO1 [4]	P12-Ichikawa [5]	SEM cells [6]
HPLM + 10% dialyzed FBS	452	442	431
RPMI 5 mM glucose + 10% FBS	403	420	438
RPMI 5 mM glucose + 10% dialyzed FBS	425	400	413

CC[C@@H](C(N)=O)N1CCCC1=O
AUC of viability dose-response curve
Settings	NOMO1 [4]	P12-Ichikawa [5]	SEM cells [6]
HPLM + 10% dialyzed FBS	442	458	450
RPMI 5 mM glucose + 10% FBS	466	460	420
RPMI 5 mM glucose + 10% dialyzed FBS	456	467	443
